# Assay results reported in patent publication US20260070929A1, “METHODS AND COMPOSITIONS FOR MODULATING KRAS(G12D)” (Ranok Therapeutics (Hangzhou) Co. LTD., priority 2022, published 2026).
# Like-named read-outs stand apart in the source and are kept apart here.
# What was measured:
# [1] = tested on: A-427 lung carcinoma cells [heterozygous G12D]; experiment: Cancer cell line proliferation (CellTiter-Glo), A-427; format: cell-based; conditions: A-427 cells, 72 hr treatment, read-out: A427 CTG (EC50)
# Summary of the method: (§1)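 EC50 values come from CellTiter-Glo viability measured after 72 hr compound treatment at 37° C./5% CO2 with 0.5% final DMSO. Plating was at 4,000 cells/well with 72 hr growth before dosing, and compounds were serially diluted 3-fold from 20 μM down to 1.02 nM.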
# [2] = tested on: AGS gastric carcinoma cells [heterozygous G12D]; experiment: Cancer cell line proliferation (CellTiter-Glo), AGS; format: cell-based; conditions: 72 hr treatment, read-out: AGS CTG (EC50)
# Summary of the method: as §1
# [3] = tested on: ASPC1 pancreatic adenocarcinoma cells [homozygous G12D]; experiment: Cancer cell line proliferation (CellTiter-Glo), ASPC1; format: cell-based; conditions: 72 hr treatment, read-out: ASPC-1 CTG (EC50)
# Description: (§2) The following cancer cell lines were employed: AGS gastric carcinoma [heterozygous G12D](ATCC, CRL-1739); A-427 lung carcinoma [heterozygous G12D](ATCC, HTB-53); ASPC1 pancreatic adenocarcinoma [homozygous G12D](ATCC, CRL-1682) and SW1990 pancreatic adenocarcinoma [homozygous G12D](ATCC CRL-2172). Cell lines were cultured essentially according to ATCC recommendations.
# (§3) AGS, A-427, ASPC1, SW1990, and GP2D cells were plated in 96-well tissue culture plates at 4,000 cells/well and incubated at 37° C./5% CO2 for 72 hr in 100 μl of media. 3-fold serial dilutions of each test compound were prepared ranging from 20 μM to 1.02 nM. Each cell line was then treated with test compounds at various concentrations with a final concentration of 0.5% DMSO/well, and then incubated at 37° C./5% CO2 for 72 hr. 100 µl of CellTiter-Glo® Reagent (Promega Corporation, Madison, WI) was added to each well and processed according manufacturer's protocol. Results were analyzed and EC50 values were calculated in GraphPad 7 software.
# [4] = molecular target: T1, KRAS(G12D)/SOS1 (Homo sapiens, UniProt P01116, G12D); experiment: KRAS(G12D)/SOS1 homogeneous time-resolved fluorescence (HTRF) assay; format: binding; conditions: absence of GTP; 4° C., 3 hr
# T1 construct: purchased Cisbio 63ADK000CB17PEH
# Summary of the method: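 HTRF kit assay of compound-blocked KRAS(G12D)–SOS1 interaction, run without GTP. Compounds were tested as 3-fold dilutions from 20 µM to 1.02 nM and incubated with the reaction components for 3 hr at 4 °C, sealed. IC50 was taken as the concentration giving 50% of maximal inhibition.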
# [5] = tested on: SW1990 pancreatic adenocarcinoma cells [homozygous G12D]; experiment: Cancer cell line proliferation (CellTiter-Glo), SW1990; format: cell-based; conditions: Homo sapiens, 72 hr treatment, read-out: SW1990 CTG (EC50)
# Description: as §2, §3
# T1 sequence (P01116 1-188 isoform P01116-2 G12D): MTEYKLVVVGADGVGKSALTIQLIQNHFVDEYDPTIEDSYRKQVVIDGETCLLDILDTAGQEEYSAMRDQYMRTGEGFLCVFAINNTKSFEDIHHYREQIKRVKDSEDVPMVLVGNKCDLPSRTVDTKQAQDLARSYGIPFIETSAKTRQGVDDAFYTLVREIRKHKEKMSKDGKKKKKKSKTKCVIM
Compound,EC50 ([1]; Homo sapiens),EC50 ([2]; Homo sapiens),"EC50 ([3]; Homo sapiens, ASPC1, 72 h)",IC50 [4],EC50 [1],EC50 [2],EC50 [3],EC50 [5]
CCNC(=O)c1nnc(-c2cc(C(C)C)c(O)cc2O)n1-c1ccc(CN2CCN(C[C@H]3CC[C@@H](COc4nc(N5CC6CCC(C5)N6)c5cnc(-c6cc(O)cc7ccccc67)c(F)c5n4)N3C)CC2)cc1 [Compound 65],< 100 nM,< 100 nM,100 to 1000 nM,< 100 nM,–,–,–,–
CCNC(=O)c1nnc(-c2cc(C(C)C)c(O)cc2O)n1-c1ccc(CN2CCN(C[C@H]3CC[C@@H](COc4nc(N5CC6CCC(C5)N6)c5cnc(-c6cccc7ccccc67)c(F)c5n4)N3C)CC2)cc1 [Compound 66],< 100 nM,< 100 nM,100 to 1000 nM,100 to 1000 nM,–,–,–,–
Cc1cccc2cccc(-c3ncc4c(N5CC6CCC(C5)N6)nc(OC[C@@H]5C[C@H](N6CCN(Cc7ccc8c(c7)CN(C(=O)c7cc(C(C)C)c(O)cc7O)C8)CC6)CN5C)nc4c3F)c12 [Compound 68],–,–,–,> 1000 nM,100 to 1000 nM,100 to 1000 nM,> 1000 nM,–
CCNC(=O)c1nnc(-c2cc(C(C)C)c(O)cc2O)n1-c1ccc(CN2CCN([C@H]3C[C@@H](COc4nc(N5CC6CNC(C6)C5)c5cnc(-c6cccc7cccc(C)c67)c(F)c5n4)N(C)C3)CC2)cc1 (some centres unmarked) [Compound 69],100 to 1000 nM,100 to 1000 nM,> 1000 nM,> 1000 nM,–,–,–,–
CC(C)c1cc(C(=O)N2Cc3ccc(CN4CCC(C(=O)N5CCN(C[C@H]6CC[C@@H](COc7nc(N8CC9CCC(C8)N9)c8cnc(-c9cc(O)cc%10ccccc9%10)c(F)c8n7)N6C)CC5)CC4)cc3C2)c(O)cc1O [Compound 70],100 to 1000 nM,100 to 1000 nM,> 1000 nM,< 100 nM,–,–,–,–
C#Cc1cccc2cc(O)cc(-c3ncc4c(N5CC6CCC(C5)N6)nc(OCC5(CN6CCN(CC7CCN(c8ccc9c(c8)CN(C(=O)c8cc(C(C)C)c(O)cc8O)C9)CC7)CC6)CC5)nc4c3F)c12 [Compound 133],100 to 1000 nM,100 to 1000 nM,100 to 1000 nM,< 100 nM,–,–,–,–
C#Cc1cccc2cc(O)cc(-c3ncc4c(N5CC6CNC(C6)C5)nc(OCC5(CN6CCN(CC7CCN(Cc8ccc(-n9c(C(=O)NC(C)C(F)(F)F)nnc9-c9cc(C(C)C)c(O)cc9O)cc8)CC7)CC6)CC5)nc4c3F)c12 (centres unmarked) [Compound 134],100 to 1000 nM,100 to 1000 nM,100 to 1000 nM,< 100 nM,–,–,–,–
C#Cc1cccc2cc(O)cc(-c3ncc4c(N5CC6CNC(C6)C5)nc(OCC5(CN6CCN(CC7CCN(Cc8ccc(-n9c(C(=O)NCC(F)(F)F)nnc9-c9cc(C(C)C)c(O)cc9O)cc8)CC7)CC6)CC5)nc4c3F)c12 (centres unmarked) [Compound 135],100 to 1000 nM,100 to 1000 nM,100 to 1000 nM,< 100 nM,–,–,–,–
C#Cc1cccc2cc(O)cc(-c3ncc4c(N5CC6CNC(C6)C5)nc(OCC5(CN6CCN(CC7CCN(C(=O)C8CCN(Cc9ccc%10c(c9)CN(C(=O)c9cc(C(C)C)c(O)cc9O)C%10)CC8)CC7)CC6)CC5)nc4c3F)c12 (centres unmarked) [Compound 136],100 to 1000 nM,100 to 1000 nM,> 1000 nM,100 to 1000 nM,–,–,–,–
CC(C)c1cc(-c2nnc(C(=O)NC(C)C(F)(F)F)n2-c2ccc(CN3CCC(CN4CCN(CC5(COc6nc(N7CC8CCC(C7)N8)c7cnc(-c8cccc9ccccc89)c(F)c7n6)CC5)CC4)CC3)cc2)c(O)cc1O (centres unmarked) [Compound 137],100 to 1000 nM,100 to 1000 nM,100 to 1000 nM,100 to 1000 nM,–,–,–,–
C#Cc1cccc2cc(O)cc(-c3ncc4c(N5CC6CCC(C5)N6)nc(OCC5(CN6CC[C@H](C(=O)N7CCN(Cc8ccc9c(c8)CN(C(=O)c8cc(C(C)C)c(O)cc8O)C9)CC7)C6)CC5)nc4c3F)c12 [Compound 139],100 to 1000 nM,100 to 1000 nM,> 1000 nM,< 100 nM,–,–,–,–
C#Cc1cccc2cc(O)cc(-c3ncc4c(N5CC6CCC(C5)N6)nc(OCC5(CN6CCC(OC7CCN(Cc8ccc(-n9c(C(=O)NC(C)C(F)(F)F)nnc9-c9cc(C(C)C)c(O)cc9O)cc8)CC7)CC6)CC5)nc4c3F)c12 (centres unmarked) [Compound 140],< 100 nM,< 100 nM,< 100 nM,< 100 nM,–,–,–,–
C#Cc1cccc2cc(O)cc(-c3ncc4c(N5CC6CCC(C5)N6)nc(OCC5(CN6CCC(OC7CCN(C(=O)C8CCN(Cc9ccc%10c(c9)CN(C(=O)c9cc(C(C)C)c(O)cc9O)C%10)CC8)CC7)CC6)CC5)nc4c3F)c12 [Compound 141],< 100 nM,< 100 nM,100 to 1000 nM,< 100 nM,–,–,–,–
C#Cc1c(F)ccc2cc(O)cc(-c3ncc4c(N5CC6CCC(C5)N6)nc(OCC5(CN6CCN(C7CN(Cc8ccc(-n9c(C(=O)NC(C)C(F)(F)F)nnc9-c9cc(C(C)C)c(O)cc9O)cc8)C7)CC6)CC5)nc4c3F)c12 (centres unmarked) [Compound 167],–,< 100 nM,–,< 100 nM,–,–,–,< 100 nM
C#Cc1c(F)ccc2cc(O)cc(-c3nc(OC)c4c(N5CC6CCC(C5)N6)nc(OCC5(CN6CCN(CC7CCN(Cc8ccc(-n9c(C(=O)NCC(F)(F)F)nnc9-c9cc(C(C)C)c(O)cc9O)cc8)CC7)CC6)CC5)nc4c3F)c12 [Compound 168],–,< 100 nM,–,< 100 nM,–,–,–,< 100 nM
C#Cc1c(F)ccc2cc(O)cc(-c3nc(OC)c4c(N5CC6CCC(C5)N6)nc(OCC5(CN6CCN(CC7CCN(Cc8ccc(-n9c(C(=O)NCC)nnc9-c9cc(C(C)C)c(O)cc9O)cc8)CC7)CC6)CC5)nc4c3F)c12 [Compound 169],–,< 100 nM,–,< 100 nM,–,–,–,< 100 nM
C#Cc1c(F)ccc2cc(O)cc(-c3nc(OC)c4c(N5CC6CCC(C5)N6)nc(OCC5(CN6CCN(C7CCN(Cc8ccc9c(c8)CN(C(=O)c8cc(O)c(C(C)C)cc8O)C9)CC7)CC6)CC5)nc4c3F)c12 [Compound 170],–,< 100 nM,–,< 100 nM,–,–,–,< 100 nM
C#Cc1c(F)ccc2cc(O)cc(-c3ncc4c(N5CC6CCC(C5)N6)nc(OCC5CN(Cc6ccc7c(c6)CN(C(=O)c6cc(C(C)C)c(O)cc6O)C7)C5)nc4c3F)c12 [Compound 172],–,100 to 1000 nM,–,< 100 nM,–,–,–,100 to 1000 nM
C#Cc1c(F)ccc2cc(O)cc(-c3ncc4c(N5CC6CCC(C5)N6)nc(OCc5ccc6c(c5)CN(C(=O)c5cc(C(C)C)c(O)cc5O)C6)nc4c3F)c12 [Compound 173],–,100 to 1000 nM,–,100 to 1000 nM,–,–,–,> 1000 nM
C#Cc1c(F)ccc2cc(O)cc(-c3ncc4c(N5CC6CCC(C5)N6)nc(OCC5CN(Cc6ccc(-n7c(C(=O)NC(C)C(F)(F)F)nnc7-c7cc(C(C)C)c(O)cc7O)cc6)C5)nc4c3F)c12 (centres unmarked) [Compound 174],–,100 to 1000 nM,–,< 100 nM,–,–,–,> 1000 nM
C#Cc1cccc2cc(O)cc(-c3ncc4c(N5CC6CCC(C5)N6)nc(OCC5(CN6CCN(CC7CCN(Cc8ccc(-n9c(C(=O)NCC)nnc9-c9cc(C(C)C)c(OC)cc9OC)cc8)CC7)CC6)CC5)nc4c3F)c12 [Compound 195],–,100 to 1000 nM,–,–,–,–,–,100 to 1000 nM
C#Cc1cccc2cc(O)cc(-c3ncc4c(N5CC6CNC(C6)C5)nc(OCC5(CN6CCN(CC7CCN(Cc8ccc(-n9c(C(=O)NCC)nnc9-c9cc(C(C)C)c(O)cc9O)cc8)CC7)CC6)CC5)nc4c3F)c12 (centres unmarked) [Compound 197],–,< 100 nM,–,–,–,–,–,100 to 1000 nM
C#Cc1c(F)ccc2cc(O)cc(-c3ncc4c(N5CC6CCC(C5)N6)nc(OCC5(CN6CCC(C7CCN(Cc8ccc9c(c8)CN(C(=O)c8cc(C(C)C)c(OC)cc8OC)C9)CC7)CC6)CC5)nc4c3F)c12 [Compound 199],–,100 to 1000 nM,–,–,–,–,–,100 to 1000 nM
C#Cc1c(F)ccc2cc(O)cc(-c3ncc4c(N5CC6CCC(C5)N6)nc(OCC5(CN6CCN(C7CCN(Cc8ccc(-n9c(C(=O)NC(C)C(F)(F)F)nnc9-c9cc(C(C)C)c(OC)cc9OC)cc8)CC7)CC6)CC5)nc4c3F)c12 (centres unmarked) [Compound 200],–,100 to 1000 nM,–,–,–,–,–,> 1000 nM
C#Cc1c(F)ccc2cc(O)cc(-c3ncc4c(N5CC6CCC(C5)N6)nc(OCC5(CN6CC(N7CCN(Cc8ccc9c(c8)CN(C(=O)c8cc(C(C)C)c(O)cc8O)C9)CC7)C6)CC5)nc4c3F)c12 [Compound 202],–,100 to 1000 nM,–,–,–,–,–,100 to 1000 nM
C#Cc1c(F)ccc2cc(O)cc(-c3ncc4c(N5CC6CCC(C5)N6)nc(OCC5(CN6CC(N7CCN(Cc8ccc(-n9c(C(=O)NC(C)C(F)(F)F)nnc9-c9cc(C(C)C)c(O)cc9O)cc8)CC7)C6)CC5)nc4c3F)c12 (centres unmarked) [Compound 203],–,–,–,–,–,–,–,< 100 nM
C#Cc1c(F)ccc2cc(O)cc(-c3ncc4c(N5CC6CCC(C5)N6)nc(OC[C@H]5CCCN5Cc5ccc6c(c5)CN(C(=O)c5cc(C(C)C)c(O)cc5O)C6)nc4c3F)c12 [Compound 204],–,100 to 1000 nM,–,–,–,–,–,> 1000 nM
